Test results taken from patent US20110230476A1, “PI3 KINASE INHIBITORS AND USES THEREOF” (AVILA THERAPEUTICS, INC., priority 2009, published 2011).

What was measured:
[1] = target: T1, PI3Kγ (p120γ) (Homo sapiens, UniProt P48736); assay: HTRF assay, potency against active PI3Kγ; format: biochemical; conditions: [ATP]=50 μM, [di-C8-PIP2]=10 μM, 30 min pre-incubation, read-out: PI3Kγ Inhibition
T1 construct: purchased BPS Bioscience (San Diego, Calif.) or Millipore (Billerica, Mass.)
Description: Homogeneous Time Resolved Fluorescence (HTRF) Assay Protocol for Potency Assessment Against the Active Forms of PI3Kα, PI3Kβ, and PI3Kγ
The protocol below describes an end-point, competition-binding HTRF assay used to measure inherent potency of test compounds against active PI3Kα (p110α/p85α), PI3Kβ (p110β/p85α), and PI3Kγ (p120γ) enzymes. The mechanics of the assay platform are best described by the vendor (Millipore, Billerica, Mass.) on their website at the following URL: www.millipore.com/coa/tech1/74jt4z.
Briefly, Stop solution (Stop A, #33-007 and Stop B, #33-009; 3:1 ratio) and Detection Mix (from DMC, #33-015 with DMA, #33-011 and DMB, #33-013; 18:1:1 ratio) were prepared as recommended by the manufacturer about 2 hrs prior to use. Additionally, 1× reaction buffer (from 4× buffer stock# 33-003), 1.4× stocks of PI3Kα, PI3Kβ, and PI3Kγ enzymes from BPS Bioscience (San Diego, Calif.) or Millipore (Billerica, Mass.) with di-C8-PIP2 lipid substrate (#33-005), and a 4×ATP solution (#A7699 Sigma/Aldrich; St. Louis, Mo.) were prepared in 1× reaction buffer. 15 μL of PI3K enzymes and lipid substrate mix were pre-incubated in a Corning (#3573) 384-well, black, non-treated microtiter plate (Corning, N.Y.) for 30 min at 25° C. with a 0.5 μL volume of 50% DMSO and serially diluted compounds prepared in 50% DMSO. Lipid kinase reactions were started with the addition of 5 μL of ATP solution, mixed for 15 sec on a rotary plate shaker and incubated for 30-60 minutes at 25° C. Next, reactions were stopped with a 5 μL addition of Stop solution immediately followed by a 5 μL volume of Detection Mix. Stopped reactions were equilibrated for 1 and 18 hrs at room temperature and read in a Synergy^4 plate reader from BioTek (Winooski, Vt.) at λex330-80/λem620-35 and λem665-7.5. At the conclusion of each assay, the HTRF ratio from fluorescence emission values for each well was calculated and % Inhibition determined from averaged controls wells (+/−PI3K enzyme). % Inhibition values for each compound were then plotted against inhibitor concentration to estimate IC50 from log [Inhibitor] vs Response, Variable Slope model in GraphPad Prism from GraphPad Software (San Diego, Calif.).
[Reagent] used in optimized protocol: • [p110α/p85α]=0.5-1.5 nM, [ATP]=50 μM, [di-C8—PIP2]=10 μM • [p110β/p85α]=0.75 nM, [ATP]=50 μM, [di-C8—PIP2]=10 μM • [p120γ]=2-2.5 nM, [ATP]=50 μM, [di-C8—PIP2]=10 μM • (ATP KMapp for both enzymes was estimated to be 40-70 μM)

[2] = test system: PI3K; assay: PI3K HCT116 cellular assay (Western blot); format: cell-based; conditions: Homo sapiens, HCT-116, HCT116 colon cancer cells, 1 hour incubation, read-out: PI3K Inhibition
Protocol: PI3K HCT116 Cellular Assay
Selected compounds were assayed in HCT116 colon cancer cells. […] Cells were then washed with PBS, lysed and the protein lysates were then recovered and analyzed by Western blot.

[3] = target: T2, PI3Kα (p110α/p85α) (Homo sapiens, UniProt P42336); assay: HTRF assay, potency against active PI3Kα; format: biochemical; conditions: HTRF; [ATP]=50 μM, [di-C8-PIP2]=10 μM; 30 min pre-incubation; read-out: PI3Kα Inhibition
T2 construct: purchased BPS Bioscience (San Diego, Calif.) or Millipore (Billerica, Mass.)
T2 sequence (P42336 whole entry): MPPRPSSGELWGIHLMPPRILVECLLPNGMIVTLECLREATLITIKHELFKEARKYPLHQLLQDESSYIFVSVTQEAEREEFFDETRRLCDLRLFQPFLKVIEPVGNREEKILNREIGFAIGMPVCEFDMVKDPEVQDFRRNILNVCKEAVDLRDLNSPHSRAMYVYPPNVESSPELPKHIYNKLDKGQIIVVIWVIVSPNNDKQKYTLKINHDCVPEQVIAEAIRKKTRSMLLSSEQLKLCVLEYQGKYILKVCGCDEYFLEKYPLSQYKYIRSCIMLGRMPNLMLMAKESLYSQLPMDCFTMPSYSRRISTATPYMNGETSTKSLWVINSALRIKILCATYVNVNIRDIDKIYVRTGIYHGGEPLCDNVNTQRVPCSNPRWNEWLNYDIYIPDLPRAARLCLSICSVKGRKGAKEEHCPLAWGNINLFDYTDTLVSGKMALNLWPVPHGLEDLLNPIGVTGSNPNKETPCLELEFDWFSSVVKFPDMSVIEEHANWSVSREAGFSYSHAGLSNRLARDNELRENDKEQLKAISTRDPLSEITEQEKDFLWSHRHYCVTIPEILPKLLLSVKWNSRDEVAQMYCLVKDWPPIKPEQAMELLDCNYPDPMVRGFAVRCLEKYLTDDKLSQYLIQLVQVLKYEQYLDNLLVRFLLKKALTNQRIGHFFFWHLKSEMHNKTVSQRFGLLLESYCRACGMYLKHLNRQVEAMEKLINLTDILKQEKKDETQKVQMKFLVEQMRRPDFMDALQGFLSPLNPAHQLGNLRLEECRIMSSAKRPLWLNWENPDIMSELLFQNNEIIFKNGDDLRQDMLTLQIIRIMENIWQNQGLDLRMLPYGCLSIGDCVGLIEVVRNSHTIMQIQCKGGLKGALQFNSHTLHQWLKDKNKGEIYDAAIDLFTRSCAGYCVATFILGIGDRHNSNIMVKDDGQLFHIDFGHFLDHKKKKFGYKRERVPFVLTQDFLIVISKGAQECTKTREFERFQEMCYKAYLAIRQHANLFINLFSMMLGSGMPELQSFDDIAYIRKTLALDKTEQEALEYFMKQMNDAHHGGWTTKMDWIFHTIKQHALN
T2 sequence (P27986 whole entry partner): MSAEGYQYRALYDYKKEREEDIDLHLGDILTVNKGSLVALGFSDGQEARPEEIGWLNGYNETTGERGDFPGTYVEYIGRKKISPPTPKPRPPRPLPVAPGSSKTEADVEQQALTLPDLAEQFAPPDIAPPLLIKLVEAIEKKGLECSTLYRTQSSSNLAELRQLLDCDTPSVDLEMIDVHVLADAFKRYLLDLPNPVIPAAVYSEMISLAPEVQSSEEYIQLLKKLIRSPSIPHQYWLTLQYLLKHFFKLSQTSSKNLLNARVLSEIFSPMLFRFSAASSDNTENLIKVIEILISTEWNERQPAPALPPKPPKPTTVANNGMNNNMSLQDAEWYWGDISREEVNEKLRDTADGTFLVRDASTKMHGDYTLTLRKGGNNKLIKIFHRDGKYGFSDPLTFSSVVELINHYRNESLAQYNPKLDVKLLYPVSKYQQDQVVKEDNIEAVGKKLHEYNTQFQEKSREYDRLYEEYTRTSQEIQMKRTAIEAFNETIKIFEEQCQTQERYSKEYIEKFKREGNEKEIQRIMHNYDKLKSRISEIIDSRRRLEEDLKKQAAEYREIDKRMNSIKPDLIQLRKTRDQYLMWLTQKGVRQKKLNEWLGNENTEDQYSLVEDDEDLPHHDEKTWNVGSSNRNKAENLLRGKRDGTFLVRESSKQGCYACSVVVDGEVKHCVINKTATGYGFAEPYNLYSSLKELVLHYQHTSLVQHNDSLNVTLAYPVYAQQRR
Outline: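 Active p110/p85α lipid kinase reactions were started with ATP and run 30-60 minutes at 25 °C, then stopped and developed with HTRF detection mix. HTRF ratio converted to % inhibition against ±enzyme controls; IC50 from log[inhibitor] vs response, variable slope.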

T1 sequence (P48736 whole entry): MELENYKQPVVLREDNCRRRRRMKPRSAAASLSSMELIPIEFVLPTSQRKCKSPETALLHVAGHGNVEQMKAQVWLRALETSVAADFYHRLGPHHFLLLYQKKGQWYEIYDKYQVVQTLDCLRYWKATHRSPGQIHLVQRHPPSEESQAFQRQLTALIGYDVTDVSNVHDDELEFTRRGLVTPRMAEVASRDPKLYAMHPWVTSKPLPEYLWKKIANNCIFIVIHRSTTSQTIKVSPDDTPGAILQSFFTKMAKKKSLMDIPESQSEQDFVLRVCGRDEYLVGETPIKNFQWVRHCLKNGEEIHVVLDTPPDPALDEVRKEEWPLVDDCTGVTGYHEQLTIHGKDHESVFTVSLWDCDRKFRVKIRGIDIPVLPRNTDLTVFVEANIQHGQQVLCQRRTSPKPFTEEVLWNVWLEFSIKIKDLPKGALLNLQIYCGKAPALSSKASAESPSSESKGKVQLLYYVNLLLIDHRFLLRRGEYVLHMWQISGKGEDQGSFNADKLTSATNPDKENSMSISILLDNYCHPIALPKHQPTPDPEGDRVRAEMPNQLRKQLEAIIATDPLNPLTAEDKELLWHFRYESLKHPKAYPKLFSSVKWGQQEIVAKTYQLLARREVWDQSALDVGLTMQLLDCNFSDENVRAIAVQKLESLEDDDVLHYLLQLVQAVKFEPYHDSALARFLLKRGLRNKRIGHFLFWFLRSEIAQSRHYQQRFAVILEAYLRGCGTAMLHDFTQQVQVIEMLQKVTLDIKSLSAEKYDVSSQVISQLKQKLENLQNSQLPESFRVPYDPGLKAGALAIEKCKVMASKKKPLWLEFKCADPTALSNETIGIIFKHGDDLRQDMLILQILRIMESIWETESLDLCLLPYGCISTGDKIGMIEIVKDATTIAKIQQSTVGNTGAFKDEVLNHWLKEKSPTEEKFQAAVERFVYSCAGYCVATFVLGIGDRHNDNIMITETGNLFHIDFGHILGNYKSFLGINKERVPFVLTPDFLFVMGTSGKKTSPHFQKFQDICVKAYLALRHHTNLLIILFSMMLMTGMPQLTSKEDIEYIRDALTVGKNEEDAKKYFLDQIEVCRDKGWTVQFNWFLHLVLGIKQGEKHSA

| SMILES | IC50 [1] | EC50 [2] | IC50 [3] |
| --- | --- | --- | --- |
| O=C1NC(=O)/C(=C/c2ccc3nccc(-c4ccncc4)c3c2)S1 [GSK-615, reference compound] |  | < 20 nM |  |
| C=CC(=O)N(C)Cc1cc2nc(-c3cccc(O)c3)nc(N3CCOCC3)c2s1 [II-a-39, N-((2-(3-hydroxyphenyl)-4-morpholinothieno[3,2-d]pyrimidin-6-yl)methyl)-N-methylacrylamide] | > 1000 nM |  | 10 to 100 nM |
| CC(C)=CC(=O)CCC(=O)NCC(=O)N1CCN(Cc2cc3nc(-c4cccc5[nH]ncc45)nc(N4CCOCC4)c3s2)CC1 [II-a-41, N-(2-(4-((2-(1H-indazol-4-yl)-4-morpholinothieno[3,2-d]pyrimidin-6-yl)methyl)piperazin-1-yl)-2-oxoethyl)-6-methyl-4-oxohept-5-enamide] | > 1000 nM |  | > 1000 nM |
| C=CC(=O)N[C@H]1CC[C@H](C(=O)N(C)Cc2cc3nc(-c4cccc(O)c4)nc(N4CCOCC4)c3s2)CC1 [II-a-42] | > 1000 nM |  | > 1000 nM |
| C=CC(=O)N(C)CC(=O)N1CCN(Cc2cc3nc(-c4cccc5[nH]ncc45)nc(N4CCOCC4)c3s2)CC1 [II-a-44, N-(2-(4-((2-(1H-indazol-4-yl)-4-morpholinothieno[3,2-d]pyrimidin-6-yl)methyl)piperazin-1-yl)-2-oxoethyl)-N-methylacrylamide] | > 1000 nM |  | > 1000 nM |
| CC(C)(C)C#CC(=O)CC[C@H](NC(=O)OC(C)(C)C)C(=O)N1CCN(Cc2cc3nc(-c4cccc5[nH]ncc45)nc(N4CCOCC4)c3s2)CC1 [II-a-51, (S)-tert-butyl 1-(4-((2-(1H-indazol-4-yl)-4-morpholinothieno[3,2-d]pyrimidin-6-yl)methyl)piperazin-1-yl)-8,8-dimethyl-1,5-dioxonon-6-yn-2-ylcarbamate] | > 1000 nM |  | 100 to 1000 nM |
| CC(C)(C)/C=C\C(=O)CC[C@H](NC(=O)OC(C)(C)C)C(=O)N1CCN(Cc2cc3nc(-c4cccc5[nH]ncc45)nc(N4CCOCC4)c3s2)CC1 [II-a-52, (S)-tert-butyl 1-(4-((2-(1H-indazol-4-yl)-4-morpholinothieno[3,2-d]pyrimidin-6-yl)methyl)piperazin-1-yl)-8,8-dimethyl-1,5-dioxonon-6-en-2-ylcarbamate] | > 1000 nM |  | 100 to 1000 nM |
| CN(C)C/C=C/C(=O)NCC(=O)N1CCN(Cc2cc3nc(-c4cccc5[nH]ncc45)nc(N4CCOCC4)c3s2)CC1 [II-a-56, (E)-N-(2-(4-((2-(1H-indazol-4-yl)-4-morpholinothieno[3,2-d]pyrimidin-6-yl)methyl)piperazin-1-yl)-2-oxoethyl)-4-(dimethylamino)but-2-enamide] | > 1000 nM |  | 100 to 1000 nM |
| C=CC(=O)N1CCN(C(=O)c2ccc(-c3cc4nc(-c5cccc6[nH]ncc56)nc(N5CCOCC5)c4s3)cc2)CC1 [II-a-57, 1-(4-(4-(2-(1H-indazol-4-yl)-4-morpholinothieno[3,2-d]pyrimidin-6-yl)benzoyl)piperazin-1-yl)prop-2-en-1-one] | > 1000 nM |  | 100 to 1000 nM |
| C=CC(=O)N1CCN(c2ccc(-c3cc4nc(-c5cccc(O)c5)nc(N5CCOCC5)c4s3)cc2)CC1 [II-a-58, 1-(4-(4-(2-(3-hydroxyphenyl)-4-morpholinothieno[3,2-d]pyrimidin-6-yl)phenyl)piperazin-1-yl)prop-2-en-1-one] | > 1000 nM |  | 10 to 100 nM |
| C=CC(=O)NCCN1CCN(Cc2cc3nc(-c4cccc5[nH]ncc45)nc(N4CCOCC4)c3s2)CC1 [II-a-59] | > 1000 nM |  | > 1000 nM |
| CCCC(=O)CCC(=O)NCC(=O)N1CCN(Cc2cc3nc(-c4cccc5[nH]ncc45)nc(N4CCOCC4)c3s2)CC1 [II^R-a-16] | > 1000 nM |  | 100 to 1000 nM |
| C/C=C/C(=O)CCC(=O)N1CCN(c2ccnc3ccc(/C=C4\SC(=O)NC4=O)cc23)CC1 [V-2, (Z)-5-((4-(4-((E)-4-oxohept-5-enoyl)piperazin-1-yl)quinolin-6-yl)methylene)thiazolidine-2,4-dione] | > 1000 nM |  | 100 to 1000 nM |
| O=C(/C=C/CNC(=O)CCCC(=O)NCCCOCCOCCOCCCNC(=O)CCCC[C@@H]1SC[C@@H]2NC(=O)N[C@@H]21)CCC(=O)N1CCN(Cc2cc3nc(-c4cccc5[nH]ncc45)nc(N4CCOCC4)c3s2)CC1 [XIV-a-2, N1-((E)-7-(4-((2-(1H-indazol-4-yl)-4-morpholinothieno[3,2-d]pyrimidin-6-yl)methyl)piperazin-1-yl)-4,7-dioxohept-2-enyl)-N5-(15-oxo-19-((3aS,4S,6aR)-2-oxohexahydro-1H-thieno[3,4-d]imidazol-4-yl)-4,7,10-trioxa-14-azanonadecyl)glutaramide] | > 1000 nM |  | > 1000 nM |

Results, then the compound that gave them:

| IC50 [1] | EC50 [2] | IC50 [3] | SMILES |
| --- | --- | --- | --- |
| 100 to 1000 nM | 100 to 500 nM | 100 to 1000 nM | C=CC(=O)NC1CCC(C(=O)N(C)Cc2cc3nc(-c4cccc(O)c4)nc(N4CCOCC4)c3s2)CC1 (racemic) [II-a-35, (±)-4-acrylamido-N-((2-(3-hydroxyphenyl)-4-morpholinothieno[3,2-d]pyrimidin-6-yl)methyl)-N-methylcyclohexanecarboxamide] |
| > 1000 nM | 2000 to 5000 nM | 100 to 1000 nM | C=CC(=O)NCC(=O)N1CCN(Cc2cc3nc(-c4cccc5[nH]ncc45)nc(N4CCOCC4)c3s2)CC1 [II-a-6, N-(2-(4-((2-(1H-indazol-4-yl)-4-morpholinothieno[3,2-d]pyrimidin-6-yl)methyl)piperazin-1-yl)-2-oxoethyl)acrylamide] |
| 100 to 1000 nM | 20 to 100 nM | 10 to 100 nM | C=CC(=O)NCCS(=O)(=O)N1CCN(Cc2cc3nc(-c4cccc(O)c4)nc(N4CCOCC4)c3s2)CC1 [II-a-25, N-(2-(4-((2-(3-hydroxyphenyl)-4-morpholinothieno[3,2-d]pyrimidin-6-yl)methyl)piperazin-1-ylsulfonyl)ethyl)acrylamide] |
| > 1000 nM |  | 100 to 1000 nM | C=CC(=O)NCC(=O)NCC(=O)N1CCN(Cc2cc3nc(-c4cccc5[nH]ncc45)nc(N4CCOCC4)c3s2)CC1 [II-a-32, N-(2-(2-(4-((2-(1H-indazol-4-yl)-4-morpholinothieno[3,2-d]pyrimidin-6-yl)methyl)piperazin-1-yl)-2-oxoethylamino)-2-oxoethyl)acrylamide] |
| > 1000 nM |  | 100 to 1000 nM | C=CC(=O)N1CCN(C(=O)C2CCN(Cc3cc4nc(-c5cccc(O)c5)nc(N5CCOCC5)c4s3)CC2)CC1 [II-a-34, (1-((2-(3-hydroxyphenyl)-4-morpholinothieno[3,2-d]pyrimidin-6-yl)methyl)piperidin-4-yl)(4-acryloyl-piperazin-1-yl)methanone] |
| > 1000 nM |  | 10 to 100 nM | C=CC(=O)NCC(=O)N1CCN(Cc2cc3nc(-c4cccc(O)c4)nc(N4CCOCC4)c3s2)CC1 [II-a-38, N-(2-(4-((2-(3-hydroxyphenyl)-4-morpholinothieno[3,2-d]pyrimidin-6-yl)methyl)piperazin-1-yl)-2-oxoethyl)acrylamide] |
| 100 to 1000 nM |  | 10 to 100 nM | C/C=C/C(=O)CCC(=O)N(C)Cc1cc2nc(-c3cccc(O)c3)nc(N3CCOCC3)c2s1 [II-a-40, (E)-N-((2-(3-hydroxyphenyl)-4-morpholinothieno[3,2-d]pyrimidin-6-yl)methyl)-N-methyl-4-oxohept-5-enamide] |
| 100 to 1000 nM |  | > 1000 nM | C=CC(=O)n1cc(-c2ccc3c(c2)N(c2nc4c(s2)C(=O)NC(C)(C)C4)CCO3)cn1 [VI-1, 2-(6-(1-acryloyl-1H-pyrazol-4-yl)-2H-benzo[b][1,4]oxazin-4(3H)-yl)-6,6-dimethyl-6,7-dihydrothiazolo[5,4-c]pyridin-4(5H)-one] |
